From article PMC4917279 (Journal of Medicinal Chemistry, 2016)

Experiments:
Test in all cases: KINOMEscan
Type in all cases: binding
Conditions in all cases: read-out: %Ctrl @ 1000 nM
CAMK2D = target: T1, CAMK2D (Homo sapiens, UniProt Q13557)
T1 construct: purchased DiscoveRx KINOMEscan

ARK5 = target: T2, ARK5 (Homo sapiens, UniProt O60285)
T2 construct: purchased DiscoveRx KINOMEscan

PIK3CG = target: T3, PIK3CG (Homo sapiens, UniProt P48736)
T3 construct: purchased DiscoveRx KINOMEscan

KIT(V559D,T670I) = target: T4, KIT(V559D,T670I) (Homo sapiens, UniProt P10721, T670I/V559D)
T4 construct: purchased DiscoveRx KINOMEscan

MAK = target: T5, MAK (Homo sapiens, UniProt P20794)
T5 construct: purchased DiscoveRx KINOMEscan

[1] = target: T6, RSK3(Kin.Dom.1-N-terminal) (Homo sapiens, UniProt Q15349)
T6 construct: RSK3(Kin.Dom.1-N-terminal); purchased DiscoveRx KINOMEscan

DMPK2 = target: T7, DMPK2 (Homo sapiens, UniProt Q6DT37)
T7 construct: purchased DiscoveRx KINOMEscan
T7 sequence (Q6DT37 whole entry): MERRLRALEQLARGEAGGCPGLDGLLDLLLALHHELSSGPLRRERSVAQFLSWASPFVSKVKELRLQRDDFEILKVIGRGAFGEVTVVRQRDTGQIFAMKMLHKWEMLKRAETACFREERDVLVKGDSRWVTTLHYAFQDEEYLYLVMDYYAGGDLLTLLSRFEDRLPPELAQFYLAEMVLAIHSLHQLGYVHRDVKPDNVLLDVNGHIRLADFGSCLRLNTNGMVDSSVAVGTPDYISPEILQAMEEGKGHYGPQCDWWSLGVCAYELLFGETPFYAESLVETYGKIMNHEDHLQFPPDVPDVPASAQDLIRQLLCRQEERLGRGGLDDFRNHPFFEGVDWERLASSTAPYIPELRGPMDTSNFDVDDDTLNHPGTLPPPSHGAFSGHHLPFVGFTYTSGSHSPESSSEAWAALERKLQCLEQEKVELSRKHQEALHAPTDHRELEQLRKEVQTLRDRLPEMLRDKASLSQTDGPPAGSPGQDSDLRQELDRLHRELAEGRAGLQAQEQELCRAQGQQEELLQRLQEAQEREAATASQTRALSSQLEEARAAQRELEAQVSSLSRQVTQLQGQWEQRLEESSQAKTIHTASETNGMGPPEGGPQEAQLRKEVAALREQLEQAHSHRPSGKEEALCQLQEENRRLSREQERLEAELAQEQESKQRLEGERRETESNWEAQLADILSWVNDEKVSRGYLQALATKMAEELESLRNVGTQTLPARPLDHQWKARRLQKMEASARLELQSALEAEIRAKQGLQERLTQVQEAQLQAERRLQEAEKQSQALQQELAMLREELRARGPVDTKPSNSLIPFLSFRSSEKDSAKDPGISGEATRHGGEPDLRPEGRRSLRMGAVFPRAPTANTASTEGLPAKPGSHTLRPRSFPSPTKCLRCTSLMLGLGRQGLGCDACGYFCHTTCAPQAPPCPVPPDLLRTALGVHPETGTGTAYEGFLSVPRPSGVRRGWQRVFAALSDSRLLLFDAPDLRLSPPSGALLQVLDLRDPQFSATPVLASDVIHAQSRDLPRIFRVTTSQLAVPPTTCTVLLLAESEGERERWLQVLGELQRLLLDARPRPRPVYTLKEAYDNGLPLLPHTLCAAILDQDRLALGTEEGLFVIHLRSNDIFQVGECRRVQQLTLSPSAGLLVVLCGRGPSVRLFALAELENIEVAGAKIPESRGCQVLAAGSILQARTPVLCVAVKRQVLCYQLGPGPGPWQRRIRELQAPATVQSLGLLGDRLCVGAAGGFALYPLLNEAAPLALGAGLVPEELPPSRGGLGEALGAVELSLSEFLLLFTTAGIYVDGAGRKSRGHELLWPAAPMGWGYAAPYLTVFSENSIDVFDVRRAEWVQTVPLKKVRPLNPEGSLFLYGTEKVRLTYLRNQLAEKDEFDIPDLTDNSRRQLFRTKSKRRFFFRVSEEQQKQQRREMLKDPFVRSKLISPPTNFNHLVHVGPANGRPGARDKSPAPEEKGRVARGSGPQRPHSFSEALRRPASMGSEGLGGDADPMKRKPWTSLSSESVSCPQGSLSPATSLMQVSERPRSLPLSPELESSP

EGFR(S752-I759del) = target: T8, EGFR(S752-I759del) (Homo sapiens, UniProt P00533, DEL752-759)
T8 construct: purchased DiscoveRx KINOMEscan
T8 sequence (P00533 with tags, fused parts or gaps DEL752-759 limits assumed): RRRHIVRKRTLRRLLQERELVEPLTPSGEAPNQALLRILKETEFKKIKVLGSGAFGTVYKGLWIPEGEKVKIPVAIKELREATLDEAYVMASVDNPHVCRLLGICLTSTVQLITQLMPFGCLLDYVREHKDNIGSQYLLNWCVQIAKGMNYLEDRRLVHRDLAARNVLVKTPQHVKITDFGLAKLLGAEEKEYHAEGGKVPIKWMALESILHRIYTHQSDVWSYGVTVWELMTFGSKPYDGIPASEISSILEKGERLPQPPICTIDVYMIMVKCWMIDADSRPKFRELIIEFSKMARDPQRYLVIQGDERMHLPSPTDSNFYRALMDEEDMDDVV

[2] = target: T9, ABL1(F317I)-phosphorylated (Homo sapiens, UniProt P00519, F317I)
T9 construct: purchased DiscoveRx (KINOMEscan service)

PRKD3 = target: T10, PRKD3 (Homo sapiens, UniProt O94806)
T10 construct: purchased DiscoveRx KINOMEscan

SRPK2 = target: T11, SRPK2 (Homo sapiens, UniProt P78362)
T11 construct: purchased DiscoveRx KINOMEscan

MEK3 = target: T12, MEK3 (Homo sapiens, UniProt P46734)
T12 construct: purchased DiscoveRx KINOMEscan

PRKCH = target: T13, PRKCH (Homo sapiens, UniProt P24723)
T13 construct: purchased DiscoveRx KINOMEscan

p38-alpha = target: T14, p38-alpha (Homo sapiens, UniProt Q16539)
T14 construct: purchased DiscoveRx KINOMEscan
T14 sequence (Q16539 whole entry): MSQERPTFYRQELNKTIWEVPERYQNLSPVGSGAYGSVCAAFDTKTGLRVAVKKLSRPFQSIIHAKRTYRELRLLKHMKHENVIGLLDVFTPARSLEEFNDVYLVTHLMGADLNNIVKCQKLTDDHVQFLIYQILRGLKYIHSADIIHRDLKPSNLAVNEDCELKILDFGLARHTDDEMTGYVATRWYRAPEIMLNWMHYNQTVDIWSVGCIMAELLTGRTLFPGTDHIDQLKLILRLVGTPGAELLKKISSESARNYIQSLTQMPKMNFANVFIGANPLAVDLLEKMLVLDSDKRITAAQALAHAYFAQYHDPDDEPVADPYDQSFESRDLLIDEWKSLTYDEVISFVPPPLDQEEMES

p38-delta = target: T15, p38-delta (Homo sapiens, UniProt O15264)
T15 construct: purchased DiscoveRx KINOMEscan
T15 sequence (O15264 whole entry): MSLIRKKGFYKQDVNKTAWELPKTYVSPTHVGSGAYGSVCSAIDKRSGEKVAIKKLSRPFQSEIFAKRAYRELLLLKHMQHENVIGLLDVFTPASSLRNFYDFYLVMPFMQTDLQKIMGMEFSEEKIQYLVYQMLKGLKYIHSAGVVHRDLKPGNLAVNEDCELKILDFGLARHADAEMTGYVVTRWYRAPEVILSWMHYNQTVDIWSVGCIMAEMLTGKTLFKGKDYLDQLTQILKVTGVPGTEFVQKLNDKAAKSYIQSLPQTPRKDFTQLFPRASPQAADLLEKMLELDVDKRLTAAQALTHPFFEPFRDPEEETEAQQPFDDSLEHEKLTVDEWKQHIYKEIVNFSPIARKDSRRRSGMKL

ACVR2A = target: T16, ACVR2A (Homo sapiens, UniProt P27037)
T16 construct: purchased DiscoveRx

[3] = target: T17, RSK3(Kin.Dom.2-C-terminal) (Homo sapiens, UniProt Q15349)
T17 construct: RSK3(Kin.Dom.2-C-terminal); purchased DiscoveRx KINOMEscan
T17 sequence (Q15349 415-672 limits assumed): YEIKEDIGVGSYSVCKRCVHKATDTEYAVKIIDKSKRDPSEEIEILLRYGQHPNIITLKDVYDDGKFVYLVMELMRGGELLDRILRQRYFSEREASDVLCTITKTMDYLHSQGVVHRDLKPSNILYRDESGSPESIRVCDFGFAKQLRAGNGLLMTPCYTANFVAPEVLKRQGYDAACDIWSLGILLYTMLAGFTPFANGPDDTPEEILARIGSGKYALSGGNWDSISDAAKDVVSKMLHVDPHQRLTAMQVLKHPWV

MARK3 = target: T18, MARK3 (Homo sapiens, UniProt P27448)
T18 construct: purchased DiscoveRx KINOMEscan

FLT3 = target: T19, FLT3 (Homo sapiens, UniProt P36888)
T19 construct: purchased DiscoveRx KINOMEscan

DLK = target: T20, DLK (Homo sapiens, UniProt Q12852)
T20 construct: purchased DiscoveRx KINOMEscan

ACVRL1 = target: T21, ACVRL1 (Homo sapiens, UniProt P37023)
T21 construct: purchased DiscoveRx KINOMEscan

[4] = target: T22, ABL1(T315I)-phosphorylated (Homo sapiens, UniProt P00519, T315I)
T22 construct: purchased DiscoveRx

[5] = target: T23, ABL1(H396P)-nonphosphorylated (Homo sapiens, UniProt P00519, H396P)
T23 construct: purchased DiscoveRx (KINOMEscan service)

CDK2 = target: T24, CDK2 (Homo sapiens, UniProt P24941)
T24 construct: purchased DiscoveRx KINOMEscan

PDGFRB = target: T25, PDGFRB (Homo sapiens, UniProt P09619)
T25 construct: purchased DiscoveRx KINOMEscan

PAK2 = target: T26, PAK2 (Homo sapiens, UniProt Q13177)
T26 construct: purchased DiscoveRx KINOMEscan

BIKE = target: T27, BIKE (Homo sapiens, UniProt Q9NSY1)
T27 construct: purchased DiscoveRx KINOMEscan

MARK2 = target: T28, MARK2 (Homo sapiens, UniProt Q7KZI7)
T28 construct: purchased DiscoveRx KINOMEscan

NEK9 = target: T29, NEK9 (Homo sapiens, UniProt Q8TD19)
T29 construct: purchased DiscoveRx KINOMEscan

PLK3 = target: T30, PLK3 (Homo sapiens, UniProt Q9H4B4)
T30 construct: purchased DiscoveRx KINOMEscan

EPHA8 = target: T31, EPHA8 (Homo sapiens, UniProt P29322)
T31 construct: purchased DiscoveRx KINOMEscan
T31 sequence (P29322 28-1005): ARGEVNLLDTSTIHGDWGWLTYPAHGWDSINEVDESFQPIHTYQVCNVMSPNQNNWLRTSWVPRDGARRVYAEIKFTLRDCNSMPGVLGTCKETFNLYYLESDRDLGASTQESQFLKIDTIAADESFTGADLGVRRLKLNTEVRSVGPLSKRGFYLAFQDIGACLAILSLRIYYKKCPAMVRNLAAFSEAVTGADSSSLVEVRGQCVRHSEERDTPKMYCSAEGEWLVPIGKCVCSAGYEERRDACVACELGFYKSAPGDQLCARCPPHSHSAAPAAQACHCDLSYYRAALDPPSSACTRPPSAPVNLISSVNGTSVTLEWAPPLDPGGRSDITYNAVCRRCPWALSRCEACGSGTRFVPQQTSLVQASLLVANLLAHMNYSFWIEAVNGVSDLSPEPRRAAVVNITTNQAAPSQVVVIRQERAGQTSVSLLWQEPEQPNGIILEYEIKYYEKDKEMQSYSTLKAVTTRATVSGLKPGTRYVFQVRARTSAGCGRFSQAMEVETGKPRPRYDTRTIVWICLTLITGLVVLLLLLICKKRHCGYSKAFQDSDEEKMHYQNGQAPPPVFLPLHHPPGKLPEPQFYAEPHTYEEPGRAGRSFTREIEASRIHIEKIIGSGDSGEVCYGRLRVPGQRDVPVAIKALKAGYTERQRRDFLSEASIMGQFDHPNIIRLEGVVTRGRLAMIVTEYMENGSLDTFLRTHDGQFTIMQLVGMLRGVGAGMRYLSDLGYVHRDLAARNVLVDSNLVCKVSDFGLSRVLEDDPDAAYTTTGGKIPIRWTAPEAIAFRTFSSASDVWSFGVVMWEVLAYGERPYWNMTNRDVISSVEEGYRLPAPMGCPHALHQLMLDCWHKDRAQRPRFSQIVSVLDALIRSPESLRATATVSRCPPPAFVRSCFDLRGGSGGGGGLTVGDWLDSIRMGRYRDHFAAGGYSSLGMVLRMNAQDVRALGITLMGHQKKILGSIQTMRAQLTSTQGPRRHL

STK35 = target: T32, STK35 (Homo sapiens, UniProt Q8TDR2)
T32 construct: purchased DiscoveRx KINOMEscan

EGFR(L858R,T790M) = target: T33, EGFR(L858R,T790M) (Homo sapiens, UniProt P00533, L858R/T790M)
T33 construct: purchased DiscoveRx KINOMEscan

RIPK2 = target: T34, RIPK2 (Homo sapiens, UniProt O43353)
T34 construct: purchased DiscoveRx KINOMEscan

SBK1 = target: T35, SBK1 (Homo sapiens, UniProt Q52WX2)
T35 construct: purchased DiscoveRx KINOMEscan
T35 sequence (Q52WX2 whole entry): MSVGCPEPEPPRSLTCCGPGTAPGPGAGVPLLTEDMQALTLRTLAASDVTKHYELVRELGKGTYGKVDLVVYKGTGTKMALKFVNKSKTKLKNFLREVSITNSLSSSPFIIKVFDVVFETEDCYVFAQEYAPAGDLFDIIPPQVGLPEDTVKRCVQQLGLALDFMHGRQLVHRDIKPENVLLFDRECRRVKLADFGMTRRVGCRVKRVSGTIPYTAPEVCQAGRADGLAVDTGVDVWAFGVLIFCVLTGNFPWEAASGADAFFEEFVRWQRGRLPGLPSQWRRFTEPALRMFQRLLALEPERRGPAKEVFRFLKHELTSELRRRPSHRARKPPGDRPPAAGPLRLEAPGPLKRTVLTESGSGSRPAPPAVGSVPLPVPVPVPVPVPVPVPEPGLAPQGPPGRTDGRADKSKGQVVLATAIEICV

TIE1 = target: T36, TIE1 (Homo sapiens, UniProt P35590)
T36 construct: purchased DiscoveRx KINOMEscan

T1 sequence (Q13557 whole entry): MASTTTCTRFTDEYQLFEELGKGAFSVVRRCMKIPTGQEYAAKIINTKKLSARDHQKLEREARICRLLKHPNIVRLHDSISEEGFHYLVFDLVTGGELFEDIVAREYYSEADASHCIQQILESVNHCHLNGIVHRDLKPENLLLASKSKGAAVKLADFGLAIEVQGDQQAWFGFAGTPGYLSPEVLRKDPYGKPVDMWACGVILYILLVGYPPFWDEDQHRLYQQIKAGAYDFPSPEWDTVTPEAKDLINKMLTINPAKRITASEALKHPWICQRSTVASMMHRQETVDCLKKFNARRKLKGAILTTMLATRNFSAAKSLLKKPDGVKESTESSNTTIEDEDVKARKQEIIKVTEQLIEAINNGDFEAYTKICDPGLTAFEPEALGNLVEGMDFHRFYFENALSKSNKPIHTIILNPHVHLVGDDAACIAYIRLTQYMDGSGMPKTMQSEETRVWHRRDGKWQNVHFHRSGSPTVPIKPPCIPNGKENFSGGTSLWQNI

For CCN(C(=O)CO)[C@H]1CN(/C(=N\C#N)Nc2cccc(OC(F)F)c2)N=C1c1ccc(Cl)c(Cl)c1 [(S)-4], the remaining binding at 1 µM (CAMK2D) was 96%, the remaining binding at 1 µM (ARK5) was 100% and the remaining binding at 1 µM (PIK3CG) was 90%. For the same compound, the remaining binding at 1 µM (KIT(V559D,T670I)) was 100%, the remaining binding at 1 µM (MAK) was 74% and the remaining binding at 1 µM [1] was 91%. It also gave a remaining binding at 1 µM (DMPK2) of 66%, a remaining binding at 1 µM (EGFR(S752-I759del)) of 100% and a remaining binding at 1 µM [2] of 98%. It also gave a remaining binding at 1 µM (PRKD3) of 99%, a remaining binding at 1 µM (SRPK2) of 95% and a remaining binding at 1 µM (MEK3) of 100%. The remaining binding at 1 µM (PRKCH) was 80%, the remaining binding at 1 µM (p38-alpha) was 86% and the remaining binding at 1 µM (p38-delta) was 72%. The remaining binding at 1 µM (ACVR2A) was 100%, the remaining binding at 1 µM [3] was 100% and the remaining binding at 1 µM (MARK3) was 69%. For the same compound, the remaining binding at 1 µM (FLT3) was 92%, the remaining binding at 1 µM (DLK) was 94% and the remaining binding at 1 µM (ACVRL1) was 74%. The remaining binding at 1 µM [4] was 100%, the remaining binding at 1 µM [5] was 92% and the remaining binding at 1 µM (CDK2) was 100%. The remaining binding at 1 µM (PDGFRB) was 100%, the remaining binding at 1 µM (PAK2) was 89% and the remaining binding at 1 µM (BIKE) was 80%. For the same compound, the remaining binding at 1 µM (MARK2) was 99%, the remaining binding at 1 µM (NEK9) was 100% and the remaining binding at 1 µM (PLK3) was 89%. The remaining binding at 1 µM (EPHA8) was 94%, the remaining binding at 1 µM (STK35) was 100% and the remaining binding at 1 µM (EGFR(L858R,T790M)) was 100%. For the same compound, the remaining binding at 1 µM (RIPK2) was 75%, the remaining binding at 1 µM (SBK1) was 88% and the remaining binding at 1 µM (TIE1) was 99%.
